Source: patent US20240199647A1, “ANTI-VIRAL COMPOUNDS” (Aligos Therapeutics, Inc., priority 2022, published 2024)
Read-outs that look alike come from different tables or passages of the source.

How the values were obtained:
[1] = tested on: SARS-CoV-2 B.1.1.7 lineage; assay: microbe, parasite or virus in culture; type: cell-based; conditions: Severe acute respiratory syndrome coronavirus 2, Table C, SARS-CoV-2 B.1.1.7 in A549-dual_ACE2_TMPRSS2 cells, read-out: A549-dual_ACE2_TMPRSS2 (EC50)
[2] = tested on: human beta-coronavirus OC43; assay: OC43 Coronavirus Assay in HeLa cells (antiviral, cytopathic effect, cell-titer-glo); type: cell-based; conditions: Betacoronavirus 1, OC43, HeLa, Table B; OC43 coronavirus in HeLa cells, class symbols; read-out: EC50
in vitro = conditions: human
[3] = Cytotoxicity in HeLa cells without addition of OC43 virus (in parallel); conditions: human, HeLa cells, without OC43 virus
SARS-Cov-2 3CLpro = SARS-Cov-2 3CLpro (Severe acute respiratory syndrome coronavirus 2, UniProt P0DTD1); assay: biochemical; conditions: Table A, class symbols, read-out: SARS-Cov-2 (IC50)

Compound | EC50 ([1]; class symbols) | EC50 [2] | CC50 (in vitro) | CC50 at 6 days [3] | IC50 (SARS-Cov-2 3CLpro) | EC50 ([1]; cells given as a bound)
CN(C(=O)[C@@H](CC1CC1)NC(=O)C(F)(F)F)[C@@H](CC1CC1)C(=O)N1C[C@@]2(C[C@H]1C#N)Oc1cccnc1NC2=O [Compound 172] | 100 to 1000 nM | 100 to 1000 nM | > 1000 nM | > 10 µM | < 20 nM | –
CN(C(=O)C1(NC(=O)C(F)(F)F)CCCCC1)[C@@H](CC1CC1)C(=O)N1C[C@@]2(C[C@H]1C#N)Oc1cccnc1NC2=O [Compound 173] | – | 1000 to 10000 nM | > 1000 nM | > 10 µM | 200 to 2000 nM | > 1000 nM
C[C@H](NC(=O)C(F)(F)Cl)C(=O)N(C)[C@@H](CC1CC1)C(=O)N1C[C@@]2(CC1C#N)Oc1cccnc1NC2=O (some centres unmarked) [Compound 174] | < 100 nM | < 100 nM | > 1000 nM | > 10 µM | < 20 nM | –
CN(C(=O)[C@H](CC1CC1)NS(=O)(=O)C1CC1)[C@@H](CC1CC1)C(=O)N1C[C@@]2(C[C@H]1C#N)Oc1ccccc1CNC2=O [Compound 175] | 100 to 1000 nM | < 100 nM | > 1000 nM | > 10 µM | < 20 nM | –
CN(C(=O)[C@H](CC1CC1)NC(=O)C1(F)CC1)[C@@H](CC1CC1)C(=O)N1C[C@@]2(CC1C#N)Oc1ccccc1CNC2=O (some centres unmarked) [Compound 176] | < 100 nM | < 100 nM | > 1000 nM | > 10 µM | < 20 nM | –
CC(C)[C@H](NC(=O)C(F)(F)F)C(=O)N(C)[C@@H](CC1CC1)C(=O)N1C[C@@]2(C[C@H]1C#N)Oc1cccnc1NC2=O [Compound 177] | 100 to 1000 nM | 100 to 1000 nM | > 1000 nM | > 10 µM | < 20 nM | –
CN(C(=O)[C@H](CC1CC1)NS(=O)(=O)C1CC1)[C@@H](CC1CC1)C(=O)N1C[C@@]2(C[C@H]1C#N)Oc1cccnc1NC2=O [Compound 178] | 100 to 1000 nM | < 100 nM | > 1000 nM | > 10 µM | < 20 nM | –
CN(C(=O)[C@@H](NC(=O)C(F)(F)F)C1CC1)[C@@H](CC1CC1)C(=O)N1C[C@@]2(C[C@H]1C#N)Oc1cccnc1NC2=O [Compound 179] | 100 to 1000 nM | < 100 nM | > 1000 nM | > 10 µM | < 20 nM | –
C[C@H](NC(=O)C(F)(F)F)C(=O)N(C)[C@@H](Cc1ccc(F)cc1)C(=O)N1C[C@@]2(C[C@H]1C#N)Oc1cccnc1NC2=O [Compound 181] | 100 to 1000 nM | 1000 to 10000 nM | > 1000 nM | > 10 µM | < 20 nM | –
CN(C(=O)[C@H](CC1CC1)NC(=O)C(F)(F)F)[C@@H](CC1CC1)C(=O)N1C[C@@]2(C[C@H]1C#N)Oc1ccccc1NC2=O [Compound 182] | < 100 nM | < 100 nM | > 1000 nM | > 10 µM | < 20 nM | –
C[C@H](NC(=O)C(F)(F)F)C(=O)N(C)[C@@H](CC1(C)CC1)C(=O)N1C[C@@]2(C[C@H]1C#N)Oc1cccnc1NC2=O [Compound 183] | 100 to 1000 nM | < 100 nM | > 1000 nM | > 10 µM | < 20 nM | –
CN(C(=O)[C@H](CC1CC1)NC(=O)C(F)(F)C(F)(F)F)[C@@H](CC1CC1)C(=O)N1C[C@@]2(C[C@H]1C#N)Oc1ncccc1NC2=O [Compound 184] | < 100 nM | < 100 nM | > 1000 nM | > 10 µM | < 20 nM | –
CN(C(=O)[C@H](CC1CC1)NC(=O)C1(F)CC1)[C@@H](CC1CC1)C(=O)N1C[C@@]2(C[C@H]1C#N)Oc1ncccc1NC2=O [Compound 185] | 100 to 1000 nM | < 100 nM | > 1000 nM | > 10 µM | < 20 nM | –
CN(C(=O)[C@H](CC1CC(F)(F)C1)NC(=O)C(F)(F)F)[C@@H](CC1CC1)C(=O)N1C[C@@]2(C[C@H]1C#N)Oc1cccnc1NC2=O [Compound 187] | 100 to 1000 nM | < 100 nM | > 1000 nM | > 10 µM | < 20 nM | –
CN(C(=O)[C@H](CC(C)(C)C)NC(=O)C(F)(F)F)[C@@H](CC1CC1)C(=O)N1C[C@@]2(C[C@H]1C#N)Oc1cccnc1NC2=O [Compound 188] | < 100 nM | < 100 nM | > 1000 nM | > 10 µM | < 20 nM | –
CN(C(=O)[C@H](CC(F)(F)F)NC(=O)C(F)(F)F)[C@@H](CC1CC1)C(=O)N1C[C@@]2(C[C@H]1C#N)Oc1cccnc1NC2=O [Compound 189] | 100 to 1000 nM | 100 to 1000 nM | > 1000 nM | > 10 µM | 20 to 200 nM | –
CN(C(=O)[C@H](COC(C)(C)C)NC(=O)C(F)(F)F)[C@@H](CC1CC1)C(=O)N1C[C@@]2(C[C@H]1C#N)Oc1cccnc1NC2=O [Compound 190] | 100 to 1000 nM | < 100 nM | > 1000 nM | > 10 µM | < 20 nM | –
CN(C(=O)[C@H](COCc1ccccc1)NC(=O)C(F)(F)F)[C@@H](CC1CC1)C(=O)N1C[C@@]2(C[C@H]1C#N)Oc1cccnc1NC2=O [Compound 191] | 100 to 1000 nM | < 100 nM | > 1000 nM | > 10 µM | < 20 nM | –
C[C@H](OCc1ccccc1)[C@H](NC(=O)C(F)(F)F)C(=O)N(C)[C@@H](CC1CC1)C(=O)N1C[C@@]2(C[C@H]1C#N)Oc1cccnc1NC2=O [Compound 192] | 100 to 1000 nM | 100 to 1000 nM | > 1000 nM | > 10 µM | 20 to 200 nM | –
C[C@H](c1ccccc1)[C@H](NC(=O)C(F)(F)F)C(=O)N(C)[C@@H](CC1CC1)C(=O)N1C[C@@]2(C[C@H]1C#N)Oc1cccnc1NC2=O [Compound 193] | 100 to 1000 nM | 100 to 1000 nM | > 1000 nM | > 10 µM | 20 to 200 nM | –
CN(C(=O)[C@@H](NC(=O)C(F)(F)F)C1CC1)[C@@H](CC1CC1)C(=O)N1C[C@@]2(C[C@H]1C#N)Oc1cc(F)cc(F)c1NC2=O [Compound 194] | < 100 nM | < 100 nM | > 1000 nM | > 10 µM | < 20 nM | –
C[C@H](NC(=O)c1ccc(F)cc1)C(=O)N(C)[C@@H](CC1CC1)C(=O)N1C[C@@]2(C[C@H]1C#N)Oc1cccnc1NC2=O [Compound 195] | 100 to 1000 nM | 100 to 1000 nM | > 1000 nM | > 10 µM | < 20 nM | –
C[C@@H](OC(C)(C)C)[C@H](NC(=O)C(F)(F)F)C(=O)N(C)[C@@H](CC1CC1)C(=O)N1C[C@@]2(C[C@H]1C#N)Oc1cccnc1NC2=O [Compound 196] | 100 to 1000 nM | < 100 nM | > 1000 nM | > 10 µM | < 20 nM | –
CN(C(=O)[C@H](CC1CC1)NS(=O)(=O)c1ccc(F)cc1)[C@@H](CC1CC1)C(=O)N1C[C@@]2(C[C@H]1C#N)Oc1cccnc1NC2=O [Compound 197] | 100 to 1000 nM | < 100 nM | > 1000 nM | > 10 µM | < 20 nM | –
CN(C(=O)[C@H](CC1CC1)NS(=O)(=O)C1(C)CC1)[C@@H](CC1CC1)C(=O)N1C[C@@]2(C[C@H]1C#N)Oc1cccnc1NC2=O [Compound 198] | 100 to 1000 nM | < 100 nM | > 1000 nM | > 10 µM | < 20 nM | –
